# Laboratory results reported in patent US11247973B2 (The University of Durham, priority 2016, dated 2022).
# Like-named read-outs stand apart in the source and are kept apart here.
# Columns and labels:
# [1] = system: RSV; test: Plaque reduction assay in Vero cells (standard and time of addition); assay type: cell-based; conditions: human respiratory syncytial virus
# [2] = Mouse in vivo pharmacokinetic assay; design: species or system male CD-1 mice
# Experimental: Pharmacokinetic evaluation of compound 2 was performed in male CD-1 mice following intravenous (IV) and oral (PO) administration. For intravenous administration the compound was formulated in solution in 40:60 DMA:saline and was administered at 1 mg/kg via the tail vein. For oral administration the compound was formulated in suspension in water containing 1% methylcellulose and 0.1% Tween80, and was administered at 10 mg/kg by oral gavage. Blood samples were taken by cardiac puncture under terminal anaesthesia (isoflurane) at ten timepoints between 1 minute and 24 hours following IV administration, and at nine timepoints between 5 minutes and 24 hours following PO administration (n=3 per timepoint). Plasma was immediately obtained by centrifugation, and the resulting samples frozen until analysis. Samples, along with a calibration curve prepared by spiking the compound into control plasma, were subsequently prepared for quantitative analysis by precipitation of plasma proteins with acetonitrile. Analysis was by ultra high performance liquid chromatography (Agilent 1290 system) coupled to time of flight mass spectrometry, using electrospray ionisation (Agilent 6550 system). Pharmacokinetic parameters were determined by non-compartmental analysis of mean concentration data using Phoenix WinNonlin v6.4.
structure (smiles),measurement,setting,value
O=C(CNc1c(F)c(F)nc(F)c1F)N[C@H]1N=C(c2ccccc2)c2ccccc2NC1=O [Compound 2],IC50,"[1]; compound added during infection only, read-out: Plaque IC50 (during infection only)",10900 nM
same,IC50,"[1]; compound added post infection only, read-out: Plaque IC50 (post infection only)",2000 nM
same,IC50,"[1]; standard plaque reduction assay, read-out: Plaque IC50",1100 nM
same,Pharmacokinetic assessment in words,[2]; IV and PO,orally bioavailable with moderate clearance
same,F,[2]; PO 10 mg/kg vs IV 1 mg/kg,54.8%
same,Vd,"[2]; male, CD-1, plasma, IV 1 mg/kg",3.65 L/kg
same,clearance,"[2]; male, CD-1, plasma, IV 1 mg/kg",63.1 mL/min/kg
same,half-life,"[2]; male, CD-1, plasma, IV 1 mg/kg, read-out: IV t½",0.983 h
same,Cmax,"[2]; male, CD-1, plasma, PO 10 mg/kg",349 ng/mL
same,half-life,"[2]; male, CD-1, plasma, PO 10 mg/kg, read-out: PO t½",2.2 h
